Measured values as given in patent publication US9622970B2, “Pharmaceutical composition containing lutein and antioxidant for treating and preventing human disease” (priority 2014, dated 2017).

Experiment: Plasma lutein concentration in chickens fed lutein or preparation of lutein (HPLC)
Format: in vivo, chicken
Conditions: diet with 15 mg lutein/kg for 15 days
Experimental: Chickens (50), weighing 1.0±0.2 kg, were randomly divided into two treatments, with 25 chickens each. Chickens were individually housed in cages measuring 0.2×0.2 m, and were submitted to a lighting program of 16 h light/day. Chickens were kept under a temperature of 20±5° C. Feed and water were supplied ad libitum.
After two weeks of washout period, when the chickens were fed lutein or preparation of lutein with basal diet, two groups were fed the basal diets lutein or preparation of lutein for a period of 15 days. Lutein contents were determined using a HPLC method. The basal diet contained 0.5 mg lutein/kg. The two diets were formulated to contain the same level of 15 mg lutein/kg. All feeds were prepared every day.
Morning blood samples were taken on day 0, and days 3, 6, 12 for lutein analysis. The number of eggs laid by each chicken was counted during the experiment. Blood samples were obtained by puncture of the vena ulnaris. One milliliter of blood was sampled from each chicken. The plasma was separated by centrifugation. Plasma lutein concentrations have been detected. […]
A single gradient-type HPLC system was used for the parallel analysis of plasma concentration of lutein. The HPLC systems consisted of two solvent-delivery systems detected with a 436-nm and a 280-nm filter. The samples were analyzed by HPLC method. Lutein was quantified by determining the peak area at 445 nm. […]

CC1=C[C@H](O)CC(C)(C)[C@H]1/C=C/C(C)=C/C=C/C(C)=C/C=C/C=C(C)/C=C/C=C(C)/C=C/C1=C(C)C[C@@H](O)CC1(C)C [Lutein, lutein]
Plasma lutein concentration: 1.20 ± 0.10 μg lutein/ml
